Data on 30 compounds can be found in paper PMC7587356, “High-Throughput Screening for Inhibitors of the SARS-CoV-2 Protease Using a FRET-Biosensor” (Molecules, 2020).

Counter-ions that a name gives are not always drawn. Like-named read-outs stand apart in the source and are kept apart here.

The target in this test is SARS-CoV-2 3CLpro (Severe acute respiratory syndrome coronavirus 2, UniProt P0DTD1). The test is described as follows: biochemical. In kind it is biochemical. Set-up: Replicate_1 / Replicate_2 / mean / mean (LOPAC_screen_w_protease): unit not given here. The note with it: for inhibition at 5 µM: 4 h; for mean (LOPAC screen with protease) / Replicate_1 (LOPAC screen with protease) / Replicate_2 (LOPAC screen with protease): primary screen at 5 µM.

[1] abbreviates: sheet LOPAC_screen_w_protease, LOPAC1280 primary screen with protease, 5 µM compound, mean of the two replicates, read-out: mean.
Setting [2] is: sheet LOPAC_screen_w_protease, LOPAC1280 primary screen with protease, 5 µM compound, replicate 1, read-out: Replicate_1.
Where [3] appears, read: sheet LOPAC_screen_w_protease, LOPAC1280 primary screen with protease, 5 µM compound, replicate 2, read-out: Replicate_2.
[4] abbreviates: sheet LOPAC_screen_w_protease, primary screen with protease, 5 µM, mean of two replicates, read-out: mean.
Where [5] appears, read: sheet LOPAC_screen_w_protease, primary screen with protease, 5 µM, replicate 1, read-out: Replicate_1.
The mark [6] stands for this setting: sheet LOPAC_screen_w_protease, primary screen with protease, 5 µM, replicate 2, read-out: Replicate_2.
Where [7] appears, read: sheet LOPAC_screen_w_protease, primary screen of LOPAC1280 at 5 µM with protease, mean of the two replicates, read-out: mean.
Setting [8] is: sheet LOPAC_screen_w_protease, primary screen of LOPAC1280 at 5 µM with protease, replicate 1, read-out: Replicate_1.
The mark [9] stands for this setting: sheet LOPAC_screen_w_protease, primary screen of LOPAC1280 at 5 µM with protease, replicate 2, read-out: Replicate_2.
Where [10] appears, read: LOPAC1280 primary screen with protease, 5 µM compound, mean of two replicates.
[11] abbreviates: sheet LOPAC_screen_w_protease, primary screen with protease, mean of two replicates, read-out: mean.
Where [12] appears, read: sheet LOPAC_screen_w_protease, primary screen with protease, replicate 1, read-out: Replicate_1.
[13] abbreviates: sheet LOPAC_screen_w_protease, primary screen with protease, replicate 2, read-out: Replicate_2.
[14] abbreviates: read-out: Replicate_1 (LOPAC_screen_w_protease).
The mark [15] stands for this setting: read-out: Replicate_2 (LOPAC_screen_w_protease).
Where [16] appears, read: sheet LOPAC_screen_w_protease, LOPAC1280 at 5 µM, mean of two replicates.
Where [17] appears, read: sheet LOPAC_screen_w_protease, LOPAC1280 at 5 µM, replicate 1.
The mark [18] stands for this setting: sheet LOPAC_screen_w_protease, LOPAC1280 at 5 µM, replicate 2.
Setting [19] is: sheet LOPAC_screen_w_protease, LOPAC1280 primary screen with protease, 5 µM compound, mean of the two replicates.
Where [20] appears, read: sheet LOPAC_screen_w_protease, LOPAC1280 primary screen with protease, 5 µM compound, replicate 1.
Where [21] appears, read: sheet LOPAC_screen_w_protease, LOPAC1280 primary screen with protease, 5 µM compound, replicate 2.
Setting [22] is: sheet LOPAC_screen_w_protease, LOPAC1280 primary screen at 5 µM, with protease, mean of the two replicates.
[23] abbreviates: sheet LOPAC_screen_w_protease, LOPAC1280 primary screen at 5 µM, with protease, replicate 1.
The mark [24] stands for this setting: sheet LOPAC_screen_w_protease, LOPAC1280 primary screen at 5 µM, with protease, replicate 2.
The mark [25] stands for this setting: sheet LOPAC_screen_w_protease, mean of two replicates.
Setting [26] is: sheet LOPAC_screen_w_protease, replicate 1.
The mark [27] stands for this setting: sheet LOPAC_screen_w_protease, replicate 2.

For `CCCN(CCC)C(=O)C(CCC(=O)O)NC(=O)c1ccccc1` (stereo not shown) [Proglumide], the inhibition at 5 µM under setting [1] is 4.27%, the inhibition at 5 µM under setting [2] stood at 4.11% and the inhibition at 5 µM under setting [3] turned out to be 4.43%.
`CN(C)CCCN1c2ccccc2Sc2ccccc21` [Promazine hydrochloride]: the inhibition at 5 µM was -0.303% under setting [4], -0.0432% under setting [5] and -0.563% under setting [6].
Turning to `CC(CN1c2ccccc2Sc2ccccc21)N(C)C` (stereo not shown) [Promethazine hydrochloride], the inhibition at 5 µM runs as follows: under setting [7], 3.55%; under setting [8], 1.74%; under setting [9], 5.35%.
For `CCCNCC(O)COc1ccccc1C(=O)CCc1ccccc1` (stereo not shown) [Propafenone hydrochloride] the same measures were 3.27%, 3.05% and 3.48%.
For `CC(C)[N+](C)(CCOC(=O)C1c2ccccc2Oc2ccccc21)C(C)C` [Propantheline bromide], the inhibition at 5 µM under setting [4] came out at 0.204%, the inhibition at 5 µM under setting [5] came out at 0.838% and the inhibition at 5 µM under setting [6] is -0.43%.
On to `CCCn1cnc2c1c(=O)n(CCCCC(C)=O)c(=O)n2C` [Propentofylline], for which the inhibition at 5 µM reads like this: (sheet LOPAC_screen_w_protease, LOPAC1280 at 5 µM, mean of two replicates, read-out: mean) 1.26%; (sheet LOPAC_screen_w_protease, LOPAC1280 at 5 µM, replicate 1, read-out: Replicate_1) 2.2%; (sheet LOPAC_screen_w_protease, LOPAC1280 at 5 µM, replicate 2, read-out: Replicate_2) 0.327%.
`CCC(=O)c1ccc2c(c1)N(CCCN(C)C)c1ccccc1S2` [Propionylpromazine hydrochloride]: the inhibition at 5 µM was 2.15% (LOPAC1280 primary screen with protease, 5 µM compound, replicate 1, read-out: Replicate_1 (LOPAC_screen_w_protease)) and 0.621% (LOPAC1280 primary screen with protease, 5 µM compound, replicate 2, read-out: Replicate_2 (LOPAC_screen_w_protease)). Besides, the “mean (LOPAC_screen_w_protease)” value under setting [10] is 1.386.
For `C=CC1=C(C)c2cc3[nH]c(cc4nc(cc5[nH]c(cc1n2)c(C)c5CCC(=O)O)C(CCC(=O)O)=C4C)c(C)c3C=C` [Protoporphyrin IX disodium], the inhibition at 5 µM is, setting by setting: (read-out: Replicate_1) 2.66%; (read-out: Replicate_2) 2.42%; (read-out: mean) 2.54%.
The corresponding values for `CNCCCC1c2ccccc2C=Cc2ccccc21` [Protriptyline hydrochloride] are 1.19%, -0.325% and 0.431%.
For `CC(C)[C@H](CO)Nc1nc(Nc2cccc(Cl)c2)c2ncn(C(C)C)c2n1` [Purvalanol A], the inhibition at 5 µM runs as follows: under setting [11], 2.33%; under setting [12], 2.6%; under setting [13], 2.06%.
`NCCCCN` [Putrescine dihydrochloride]: the “mean (LOPAC_screen_w_protease)” value amounted to 2.055. Under setting [14], the inhibition at 5 µM came out at 4.37%. The inhibition at 5 µM under setting [15] was -0.258%.
Take `NC(=O)c1cnccn1` [Pyrazinecarboxamide]: the mean under setting [16] was found to be 0.9233. The compound further gave a Replicate_1 under setting [17] of 1.572. This compound also came in with a Replicate_2 under setting [18] of 0.2741.
As to `CN(C)C(=O)Oc1ccc[n+](C)c1` [Pyridostigmine bromide], the inhibition at 5 µM was 0.333% under setting [4], 1.4% under setting [5] and -0.737% under setting [6].
As for `COc1ccc(CN(CCN(C)C)c2ccccn2)cc1` [Pyrilamine maleate], the inhibition at 5 µM is, setting by setting: under setting [11], 2.44%; under setting [12], 1.24%; under setting [13], 3.63%.
Regarding `C[C@@H]1C(=O)NC2=Nc3cccc(Cl)c3CN21` [Quazinone], the inhibition at 5 µM turned out to be 4.1% under setting [1], 4.2% under setting [2] and 4% under setting [3].
In the case of `O=c1c(O)c(-c2ccc(O)c(O)c2)oc2cc(O)cc(O)c12` [Quercetin dihydrate], the inhibition at 5 µM was 2.76% under setting [14] and 1.18% under setting [15].
Under setting [19], `CCCN1CCC[C@@H]2Cc3nc(N)ncc3C[C@H]21.Cl.Cl` [Quinelorane dihydrochloride] returned a mean of 6.182. Under setting [20], the Replicate_1 was 6.527. In addition, under setting [21], the Replicate_2 amounted to 5.838.
For `O=C(O)c1cccnc1C(=O)O` [Quinolinic acid], the inhibition at 5 µM is, setting by setting: (sheet LOPAC_screen_w_protease, LOPAC1280 primary screen at 5 µM, with protease, mean of the two replicates, read-out: mean) 0.58%; (sheet LOPAC_screen_w_protease, LOPAC1280 primary screen at 5 µM, with protease, replicate 1, read-out: Replicate_1) -0.228%; (sheet LOPAC_screen_w_protease, LOPAC1280 primary screen at 5 µM, with protease, replicate 2, read-out: Replicate_2) 1.39%.
`O=C(O)/C=C\C(=O)O.O=C(O)/C=C\C(=O)O.c1ccc2nc(N3CCNCC3)ccc2c1` [Quipazine dimaleate] had a mean under setting [22] of 0.5004. Under setting [23], this compound returned a Replicate_1 of 0.6596. Further, the Replicate_2 under setting [24] worked out at 0.3411.
As for `O=C(O)/C=C\C(=O)O.O=[N+]([O-])c1ccc2nc(N3CCNCC3)ccc2c1` [Quipazine, 6-nitro-, maleate], under setting [22], the mean turned out to be 0.7082. Under setting [23], this compound came in with a Replicate_1 of 1.452. The same compound had a Replicate_2 under setting [24] of -0.03606.
`CN1CCN(c2ccc3ccccc3n2)CC1.O=C(O)/C=C\C(=O)O.O=C(O)/C=C\C(=O)O` [Quipazine, N-methyl-, dimaleate]: under setting [22], the mean came out at 0.6078. Also, the Replicate_1 under setting [23] came out at 1.027. The compound also displayed a Replicate_2 under setting [24] of 0.1891.
In turn, `CCCN1CCC[C@H](c2cccc(O)c2)C1.Cl` [R(+)-3PPP hydrochloride] yielded a mean under setting [16] of 0.9121. Moreover, the Replicate_1 under setting [17] is 1.657. The same compound gave a Replicate_2 under setting [18] of 0.167.
With `Br.C=CCN1CCc2c(cc(O)c(O)c2Br)[C@@H](c2ccccc2)C1` [R(+)-6-Bromo-APB hydrobromide], the “mean (LOPAC screen with protease)” value under setting [25] stood at 28.8024. Under setting [26], the “Replicate_1 (LOPAC screen with protease)” value is given as 26.2193. The “Replicate_2 (LOPAC screen with protease)” value under setting [27] amounted to 31.3855.
Turning to `C[C@@]1(C2CCCC2)Cc2cc(OCC(=O)O)c(Cl)c(Cl)c2C1=O` [R(+)-IAA-94], where the note is “sheet LOPAC_screen_w_protease, primary screen with protease, compound at 5 µM, mean of two replicates”, the mean worked out at 3.0784. In addition, where the note is “sheet LOPAC_screen_w_protease, primary screen with protease, compound at 5 µM, replicate 2”, the Replicate_2 came to 3.637.
`CN1CCc2cc(Cl)c(O)cc2[C@@H](c2ccccc2)C1.Cl` [R(+)-SCH-23390 hydrochloride] gave a mean (sheet LOPAC_screen_w_protease, primary screen of LOPAC1280 at 5 µM with protease, mean of the two replicates) of 3.494. Moreover, the Replicate_1 (sheet LOPAC_screen_w_protease, primary screen of LOPAC1280 at 5 µM with protease, replicate 1) stood at 4.714. Moreover, the Replicate_2 (sheet LOPAC_screen_w_protease, primary screen of LOPAC1280 at 5 µM with protease, replicate 2) turned out to be 2.274.
Compound `CCN(CC)C(=O)N[C@H]1C[C@@H]2c3cccc4[nH]cc(c34)C[C@H]2N(C)C1` [R(+)-Terguride] gave a mean under setting [22] of 0.4418. Under setting [23], the Replicate_1 was determined as 0.9662. The Replicate_2 under setting [24] was -0.08256.
As for `CCCN(CCC)[C@@H]1CCc2c(F)ccc(O)c2C1.Cl` [R(+)-UH-301 hydrochloride], under setting [10], the “mean (LOPAC_screen_w_protease)” value was 1.335. Under “LOPAC1280 primary screen with protease, 5 µM compound, replicate 1”, the “Replicate_1 (LOPAC_screen_w_protease)” value is 1.567. For the same compound, the “Replicate_2 (LOPAC_screen_w_protease)” value (LOPAC1280 primary screen with protease, 5 µM compound, replicate 2) worked out at 1.103.
For the compound `COc1ccc2c(c1O)-c1cccc3c1[C@@H](C2)N(C)CC3.Cl` [R(-)-Apocodeine hydrochloride], the mean under setting [19] worked out at 6.058. In addition, the Replicate_1 under setting [20] turned out to be 6.597. The Replicate_2 under setting [21] amounted to 5.52.
`COc1ccc(CCNC[C@H](O)c2ccc(O)cc2)cc1OC` [R(-)-Denopamine] yielded a mean (sheet LOPAC_screen_w_protease, primary screen with protease, 5 µM, mean of two replicates) of -0.5647. This compound also gave a Replicate_1 (sheet LOPAC_screen_w_protease, primary screen with protease, 5 µM, replicate 1) of -0.1092. In addition, the Replicate_2 (sheet LOPAC_screen_w_protease, primary screen with protease, 5 µM, replicate 2) is on record as -1.02.
Regarding `Cc1cccc(C)c1OCC(N)C(C)C.I` (stereo not drawn) [R(-)-Me5], the “mean (LOPAC screen with protease)” value under setting [25] is 9.695. Further, under setting [26], the “Replicate_1 (LOPAC screen with protease)” value is 9.8488. The “Replicate_2 (LOPAC screen with protease)” value under setting [27] stood at 9.541.
